In brackets after ≈: the same amount, converted by molar mass. Where two headings read alike, the source gives them in different places.
How the values were obtained:
[1] = tested on: Penicillium funiculosum (ATCC 36839); assay: Antifungal bioassay (MIC/MFC); assay type: cell-based; conditions: Talaromyces funiculosus, ATCC36839; P.f. (P. funiculosum)
How it was run: (§1)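 Experiments were run twice for every fungus in the panel.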

[2] = tested on: Aspergillus versicolor (ATCC 11730); assay: Antifungal bioassay (MIC/MFC); assay type: cell-based; conditions: ATCC11730, A.v. (A. versicolor)
How it was run: as §1

[3] = tested on: Trichoderma viride (IAM 5061); assay: Antifungal bioassay (MIC/MFC); assay type: cell-based; conditions: T.v. (T. viride)
How it was run: as §1

A. ochraceus = assay: Antifungal bioassay (MIC/MFC); assay type: cell-based; conditions: Aspergillus ochraceus, A.o. (A. ochraceus); for MIC: read-out: MIC
How it was run: as §1

[4] = tested on: Aspergillus niger (ATCC 6275); assay: Antifungal bioassay (MIC/MFC); assay type: cell-based; conditions: ATCC6275, A.n. (A. niger)
How it was run: as §1

P. ochrochloron = assay: Antifungal bioassay (MIC/MFC); assay type: cell-based; conditions: Penicillium ochrochloron; for MFC: P.o. (P. ochrochloron); for MIC: P.o. (P. ochrochloron; text: P. ochramensis), read-out: MIC
How it was run: as §1

[5] = tested on: Aspergillus fumigatus (ATCC 1022); assay: Antifungal bioassay (MIC/MFC); assay type: cell-based; conditions: ATCC1022, A.f. (A. fumigatus)
How it was run: as §1

[6] = tested on: Listeria monocytogenes (NCTC 7973); assay: Antibacterial microdilution (MIC/MBC); assay type: cell-based; conditions: L.m. (L. monocytogenes)
How it was run: (§2)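 Compounds were serially tested by a modified microdilution procedure; the lowest inhibitory and lowest bactericidal concentrations were recorded, and ampicillin plus streptomycin served as comparators.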

[7] = tested on: Bacillus cereus (clinical isolate); assay: Antibacterial microdilution (MIC/MBC); assay type: cell-based; conditions: Bacillus cereus, B.c. (B. cereus); for MIC: read-out: MIC
How it was run: as §2

[8] = tested on: Staphylococcus aureus (ATCC 6538); assay: Antibacterial microdilution (MIC/MBC); assay type: cell-based; conditions: S.a. (S. aureus)
How it was run: as §2

P. aeruginosa = assay: Antibacterial microdilution (MIC/MBC); assay type: cell-based; conditions: Pseudomonas aeruginosa, P.a. (P. aeruginosa); for MIC: read-out: MIC
How it was run: as §2

M. flavus = assay: Antibacterial microdilution (MIC/MBC); assay type: cell-based; conditions: Micrococcus flavus; M.f. (M. flavus)
How it was run: as §2

[9] = tested on: Enterobacter cloacae (clinical isolate); assay: Antibacterial microdilution (MIC/MBC); assay type: cell-based; conditions: Enterobacter cloacae, En.cl (En. cloacae); for MIC: read-out: MIC
How it was run: as §2

[10] = tested on: Salmonella typhimurium (ATCC 13311); assay: Antibacterial microdilution (MIC/MBC); assay type: cell-based; conditions: Salmonella enterica, S.t. (S. typhimurium); for MIC: read-out: MIC
How it was run: as §2

[11] = tested on: Escherichia coli (ATCC 35210); assay: Antibacterial microdilution (MIC/MBC); assay type: cell-based; conditions: Escherichia coli, ATCC35210, E. coli; for MIC: read-out: MIC
How it was run: as §2

[12] = tested on: Penicillium verrucosum var. cyclopium (food isolate); assay: Antifungal bioassay (MIC/MFC); assay type: cell-based
[13] = Trichoderma viride, IAM5061, read-out: MIC
[14] = Listeria monocytogenes, NCTC7973
[15] = Listeria monocytogenes, NCTC7973, read-out: MIC
[16] = Staphylococcus aureus, ATCC6538
[17] = Staphylococcus aureus, ATCC6538, read-out: MIC

Compound	MFC [1]	MIC [1]	MFC [2]	MIC [2]	MIC [3]	MFC ([3]; Trichoderma viride, IAM5061)	MIC [3, 13]	MFC (A. ochraceus)	MIC (A. ochraceus)	MFC [4]	MIC [4]	MFC (P. ochrochloron)	MIC (P. ochrochloron)	MFC [5]	MIC [5]	MBC [6, 14]	MIC [6, 15]	MBC [7]	MIC [7]	MBC [8, 16]	also measured
COC(=O)c1[nH]c2ccccc2c1/C=C1\SC(=S)N(C(C(=O)O)C(C)C)C1=O (stereo not shown) [Compound 12, (Z)-2-(5-((2-(methoxycarbonyl)-1H-indol-3-yl)methylene)-4-oxo-2-thioxothiazolidin-3-yl)-3-methylbutanoic acid]	30 ± 10 mg/L (≈ 71.7 µM)	15 ± 3 mg/L (≈ 35.8 µM)	15 ± 3 mg/L (≈ 35.8 µM)	8 ± 0.6 mg/L (≈ 19.1 µM)	8 ± 0.6 mg/L (≈ 19.1 µM)	15 ± 3 mg/L (≈ 35.8 µM)	8 mg/L (≈ 19.1 µM)	15 ± 3 mg/L (≈ 35.8 µM)	8 ± 0.6 mg/L (≈ 19.1 µM)	30 ± 10 mg/L (≈ 71.7 µM)	22 ± 5 mg/L (≈ 52.6 µM)	30 ± 10 mg/L (≈ 71.7 µM)	15 ± 3 mg/L (≈ 35.8 µM)	120 ± 40 mg/L (≈ 287 µM)	60 ± 6 mg/L (≈ 143 µM)	30 ± 10 mg/L (≈ 71.7 µM)	15 mg/L (≈ 35.8 µM)	60 ± 6 mg/L (≈ 143 µM)	30 ± 10 mg/L (≈ 71.7 µM)	60 ± 6 mg/L (≈ 143 µM)	MIC [6]: 15 ± 1 mg/L (≈ 35.8 µM); MIC [8, 17]: 30 ± 10 mg/L (≈ 71.7 µM); MBC (P. aeruginosa): 30 ± 10 mg/L (≈ 71.7 µM); MIC (P. aeruginosa): 15 ± 9 mg/L (≈ 35.8 µM); MBC (M. flavus): 60 ± 6 mg/L (≈ 143 µM); MIC (M. flavus): 30 ± 10 mg/L (≈ 71.7 µM); MBC [9]: 60 ± 6 mg/L (≈ 143 µM); MIC [9]: 15 mg/L (≈ 35.8 µM); MBC [10]: 8 ± 9 mg/L (≈ 19.1 µM); MBC [11]: 30 ± 10 mg/L (≈ 71.7 µM); melting point: 256 to 258 °C; MFC [12]: 60 ± 6 mg/L (≈ 143 µM); MIC [12]: 30 ± 10 mg/L (≈ 71.7 µM)
COC(=O)c1[nH]c2ccc(F)cc2c1/C=C1\SC(=S)N(N2CCOCC2)C1=O [Compound 16, (Z)-methyl 5-fluoro-3-((3-morpholino-4-oxo-2-thioxothiazolidin-5-ylidene)methyl)-1H-indole-2-carboxylate]	30 ± 10 mg/L (≈ 71.2 µM)	15 ± 3 mg/L (≈ 35.6 µM)	30 ± 10 mg/L (≈ 71.2 µM)	15 ± 3 mg/L (≈ 35.6 µM)	8 ± 0.6 mg/L (≈ 19 µM)	15 ± 3 mg/L (≈ 35.6 µM)	8 mg/L (≈ 19 µM)	30 ± 10 mg/L (≈ 71.2 µM)	15 ± 3 mg/L (≈ 35.6 µM)	30 ± 10 mg/L (≈ 71.2 µM)	15 ± 3 mg/L (≈ 35.6 µM)	30 ± 10 mg/L (≈ 71.2 µM)	15 ± 3 mg/L (≈ 35.6 µM)	30 ± 10 mg/L (≈ 71.2 µM)	15 ± 3 mg/L (≈ 35.6 µM)	60 ± 6 mg/L (≈ 142 µM)	45 ± 3 mg/L (≈ 107 µM)	30 ± 10 mg/L (≈ 71.2 µM)	15 ± 9 mg/L (≈ 35.6 µM)	30 ± 10 mg/L (≈ 71.2 µM)	MIC [8, 17]: 22 ± 5 mg/L (≈ 52.2 µM); MBC (P. aeruginosa): 60 ± 6 mg/L (≈ 142 µM); MIC (P. aeruginosa): 30 ± 10 mg/L (≈ 71.2 µM); MBC (M. flavus): 60 ± 6 mg/L (≈ 142 µM); MIC (M. flavus): 45 ± 3 mg/L (≈ 107 µM); MBC [9]: 60 ± 6 mg/L (≈ 142 µM); MIC [9]: 45 ± 3 mg/L (≈ 107 µM); MBC [10]: 60 ± 6 mg/L (≈ 142 µM); MIC [10]: 45 ± 3 mg/L (≈ 107 µM); MBC [11]: 60 ± 6 mg/L (≈ 142 µM); MIC [11]: 30 ± 10 mg/L (≈ 71.2 µM); melting point: 273 to 274 °C; MFC [12]: 30 ± 10 mg/L (≈ 71.2 µM); MIC [12]: 15 ± 3 mg/L (≈ 35.6 µM)
COC(=O)c1[nH]c2ccccc2c1/C=C1\SC(=S)N(CCCN2CCOCC2)C1=O [Compound 5, (Z)-methyl 3-((3-(3-morpholinopropyl)-4-oxo-2-thioxothiazolidin-5-ylidene)methyl)-1H-indole-2-carboxylate]	30 ± 10 mg/L (≈ 67.3 µM)	15 ± 3 mg/L (≈ 33.7 µM)	15 ± 3 mg/L (≈ 33.7 µM)	8 ± 0.6 mg/L (≈ 18 µM)	4 ± 1 mg/L (≈ 8.98 µM)	8 ± 0.6 mg/L (≈ 18 µM)	4 mg/L (≈ 8.98 µM)	15 ± 3 mg/L (≈ 33.7 µM)	8 ± 0.6 mg/L (≈ 18 µM)	30 ± 10 mg/L (≈ 67.3 µM)	15 ± 3 mg/L (≈ 33.7 µM)	15 ± 3 mg/L (≈ 33.7 µM)	110 ± 10 mg/L (≈ 247 µM)	120 ± 40 mg/L (≈ 269 µM)	60 ± 6 mg/L (≈ 135 µM)	60 ± 6 mg/L (≈ 135 µM)	30 ± 10 mg/L (≈ 67.3 µM)	60 ± 6 mg/L (≈ 135 µM)	30 ± 10 mg/L (≈ 67.3 µM)	30 ± 10 mg/L (≈ 67.3 µM)	MIC [8]: 15 ± 9 mg/L (≈ 33.7 µM); MIC [8, 17]: 15 mg/L (≈ 33.7 µM); MBC (P. aeruginosa): 60 ± 6 mg/L (≈ 135 µM); MIC (P. aeruginosa): 30 ± 10 mg/L (≈ 67.3 µM); MBC (M. flavus): 60 ± 6 mg/L (≈ 135 µM); MIC (M. flavus): 45 ± 3 mg/L (≈ 101 µM); MBC [9]: 30 ± 10 mg/L (≈ 67.3 µM); MIC [9]: 15 ± 9 mg/L (≈ 33.7 µM); MBC [10]: 30 ± 10 mg/L (≈ 67.3 µM); MIC [10]: 22 ± 5 mg/L (≈ 49.4 µM); MBC [11]: 60 ± 6 mg/L (≈ 135 µM); MIC [11]: 30 ± 10 mg/L (≈ 67.3 µM); melting point: 213 to 214 °C; MFC [12]: 30 ± 10 mg/L (≈ 67.3 µM); MIC [12]: 15 ± 3 mg/L (≈ 33.7 µM)
COC(=O)c1[nH]c2ccccc2c1/C=C1\SC(=S)N(c2ccc(O)cc2)C1=O [Compound 4, (Z)-methyl 3-((3-(4-hydroxyphenyl)-4-oxo-2-thioxothiazolidin-5-ylidene)methyl)-1H-indole-2-carboxylate]	30 ± 10 mg/L (≈ 73.1 µM)	15 ± 3 mg/L (≈ 36.5 µM)	15 ± 3 mg/L (≈ 36.5 µM)	8 ± 0.6 mg/L (≈ 19.5 µM)	8 ± 0.6 mg/L (≈ 19.5 µM)	15 ± 3 mg/L (≈ 36.5 µM)	8 mg/L (≈ 19.5 µM)	15 ± 3 mg/L (≈ 36.5 µM)	8 ± 0.6 mg/L (≈ 19.5 µM)	30 ± 10 mg/L (≈ 73.1 µM)	15 ± 3 mg/L (≈ 36.5 µM)	30 ± 10 mg/L (≈ 73.1 µM)	15 ± 3 mg/L (≈ 36.5 µM)	120 ± 40 mg/L (≈ 292 µM)	60 ± 6 mg/L (≈ 146 µM)	60 ± 6 mg/L (≈ 146 µM)	45 ± 1 mg/L (≈ 110 µM)	60 ± 6 mg/L (≈ 146 µM)	30 ± 10 mg/L (≈ 73.1 µM)	60 ± 6 mg/L (≈ 146 µM)	MIC [8, 17]: 30 ± 10 mg/L (≈ 73.1 µM); MBC (P. aeruginosa): 60 ± 6 mg/L (≈ 146 µM); MIC (P. aeruginosa): 30 ± 10 mg/L (≈ 73.1 µM); MBC (M. flavus): 60 ± 6 mg/L (≈ 146 µM); MIC (M. flavus): 45 ± 3 mg/L (≈ 110 µM); MBC [9]: 30 ± 10 mg/L (≈ 73.1 µM); MIC [9]: 15 ± 9 mg/L (≈ 36.5 µM); MBC [10]: 60 ± 6 mg/L (≈ 146 µM); MIC [10]: 45 ± 3 mg/L (≈ 110 µM); MBC [11]: 60 ± 6 mg/L (≈ 146 µM); MIC [11]: 45 ± 3 mg/L (≈ 110 µM); melting point: 282 to 284 °C; MFC [12]: 60 ± 6 mg/L (≈ 146 µM); MIC [12]: 30 ± 10 mg/L (≈ 73.1 µM)
